{"source": "patent US9751885B2", "about": "“Cyclopropanamine compound and use thereof” (Takeda Pharmaceutical Company Limited, priority 2012, dated 2017)", "key": {"[1]": {"target": "MAO-A enzyme (Homo sapiens (Human), UniProt P21397)", "sequence (P21397 whole entry)": "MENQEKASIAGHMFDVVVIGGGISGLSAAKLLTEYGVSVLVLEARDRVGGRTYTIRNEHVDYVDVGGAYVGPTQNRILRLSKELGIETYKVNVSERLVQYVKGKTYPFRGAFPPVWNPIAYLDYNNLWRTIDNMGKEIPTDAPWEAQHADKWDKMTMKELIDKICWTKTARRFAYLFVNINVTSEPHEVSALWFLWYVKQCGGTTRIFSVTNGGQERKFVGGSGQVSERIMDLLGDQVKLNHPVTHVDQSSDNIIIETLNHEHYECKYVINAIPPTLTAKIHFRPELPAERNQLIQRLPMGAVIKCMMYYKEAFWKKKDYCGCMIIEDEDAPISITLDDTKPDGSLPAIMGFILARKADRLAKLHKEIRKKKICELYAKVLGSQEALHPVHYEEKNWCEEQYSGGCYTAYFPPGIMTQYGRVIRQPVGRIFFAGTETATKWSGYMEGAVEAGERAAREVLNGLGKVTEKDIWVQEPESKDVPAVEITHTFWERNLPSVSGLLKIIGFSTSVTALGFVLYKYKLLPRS", "assay": "Measurement of MAO-A inhibitory activity (MAO-Glo Assay)", "assay_type": "biochemical", "description": "The MAO-A inhibitory activity evaluation described below followed the protocol of MAO-Glo (registered trademark) Assay of Promega KK.\nA test compound dissolved in 4% DMSO was added by 12.5 μL to 25 μL reaction solution (100 mM HEPES (pH 7.5), 5% glycerol) containing 400 ng of MAO-A enzyme (Sigma-Aldrich Co. LLC.), and the mixture was reacted at room temperature for 10 min. […] After reaction at room temperature for 60 min, Luciferine detection reagent (Promega KK) (50 μL) was added to terminate the reaction. After reaction at room temperature for min with stirring, the luminescence was measured by Envision (PerkinElmer). The MAO-A inhibitory rate (%) of the test compound was calculated by the following formula. inhibitory rate(%)=(1−(test compound count−blank)÷(control−blank))×100\nThe count of the MAO-A enzyme reaction mixture under compound non-addition conditions is indicated as control, and the count under compound non-addition and MAO-A enzyme non-addition conditions is indicated as blank."}, "[2]": {"target": "human LSD1(172-833) (Homo sapiens (Human), UniProt O60341)", "assay": "Measurement of LSD1 inhibitory activity (time-resolved fluorescence, biotin-histone H3 mono methylated K4 peptide)", "assay_type": "biochemical", "outline": "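Remaining signal detected by TR-FRET after 60 min with europium anti-histone H3 antibody and streptavidin-XL665 in potassium fluoride/0.1% BSA.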"}, "[3]": {"target": "MAO-B enzyme (Homo sapiens (Human), UniProt P27338)", "sequence (P27338 whole entry)": "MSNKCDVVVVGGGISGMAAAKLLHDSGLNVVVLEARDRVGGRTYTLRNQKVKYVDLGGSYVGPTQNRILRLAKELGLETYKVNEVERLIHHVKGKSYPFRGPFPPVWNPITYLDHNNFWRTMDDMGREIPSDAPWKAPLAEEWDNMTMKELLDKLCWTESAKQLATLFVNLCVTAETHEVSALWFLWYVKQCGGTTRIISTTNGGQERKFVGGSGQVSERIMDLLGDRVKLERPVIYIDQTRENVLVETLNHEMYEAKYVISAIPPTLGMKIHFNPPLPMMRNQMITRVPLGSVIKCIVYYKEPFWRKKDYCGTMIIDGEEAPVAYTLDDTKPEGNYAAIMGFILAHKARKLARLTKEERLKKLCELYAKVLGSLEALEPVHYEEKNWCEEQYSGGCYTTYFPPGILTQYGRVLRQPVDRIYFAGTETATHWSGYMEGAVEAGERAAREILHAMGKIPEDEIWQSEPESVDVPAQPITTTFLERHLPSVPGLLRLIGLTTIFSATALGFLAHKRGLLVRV", "assay": "Measurement of MAO-B inhibitory activity (MAO-Glo Assay);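 also: luminescence read-out, compound preincubated 10 min with enzyme then reacted 60 min at room temperature, inhibition relative to enzyme reaction without compound, blank lacking enzyme and compound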", "settings": "read-out: MAO-B IC50 value", "description": "The MAO-B inhibitory activity evaluation described below followed the protocol of MAO-Glo (registered trademark) Assay of Promega KK.\nA test compound dissolved in 4% DMSO was added by 12.5 μL to 25 μL reaction solution (100 mM HEPES (pH 7.5), 5% glycerol, 10% DMSO) containing 400 ng of MAO-B enzyme (Sigma-Aldrich Co. LLC.), and the mixture was reacted at room temperature for 10 min. […] After reaction at room temperature for 60 min, Luciferine detection reagent (Promega KK) (50 μL) was added to terminate the reaction. After reaction at room temperature for 20 min with stirring, the luminescence was measured by Envision (PerkinElmer). The MAO-B inhibitory rate (%) of the test compound was calculated by the following formula. inhibitory rate(%)=(1−(test compound count−blank)÷(control−blank))×100\nThe count of the MAO-B enzyme reaction mixture under compound non-addition conditions is indicated as control, and the count under compound non-addition and MAO-B enzyme non-addition conditions is indicated as blank."}}, "note": "Counter-ions that a name gives are not always drawn.", "data": [{"smiles": "CS(=O)(=O)c1ccc(NC(=O)c2cccc([C@@H]3C[C@H]3NCC3CC3)c2)cc1", "note": "(relative stereo) [Example 124, 3-(trans-2-((cyclopropylmethyl)amino)cyclopropyl)-N-(4-(methylsulfonyl)phenyl)benzamide trifluoroacetate]", "values": [{"measurement": "IC50", "setting": "[1]", "value": "> 10", "unit": "µM"}, {"measurement": "IC50", "setting": "[2]", "value": "< 0.1", "unit": "µM"}, {"measurement": "IC50", "setting": "[3]", "value": "> 10", "unit": "µM"}]}, {"smiles": "O=C(Nc1ccc(-c2cn3c(n2)SCC3)cc1)c1cccc([C@@H]2C[C@H]2NCC2CC2)c1", "note": "(relative stereo) [Example 127, 3-(trans-2-((cyclopropylmethyl)amino)cyclopropyl)-N-(4-(2,3-dihydroimidazo[2,1-b][1,3]thiazol-6-yl)phenyl)benzamide bis(trifluoroacetate)]", "values": [{"measurement": "IC50", "setting": "[1]", "value": "> 10", "unit": "µM"}, {"measurement": "IC50", "setting": "[2]", "value": "< 0.1", "unit": "µM"}, {"measurement": "IC50", "setting": "[3]", "value": "> 10", "unit": "µM"}]}, {"smiles": "O=C(Nc1ccc(Cc2ccccc2)cc1)c1cccc([C@@H]2C[C@H]2NCC2CC2)c1", "note": "(relative stereo) [Example 129, N-(4-benzylphenyl)-3-(trans-2-((cyclopropylmethyl)amino)cyclopropyl)benzamide trifluoroacetate]", "values": [{"measurement": "IC50", "setting": "[1]", "value": "> 10", "unit": "µM"}, {"measurement": "IC50", "setting": "[2]", "value": "< 0.1", "unit": "µM"}, {"measurement": "IC50", "setting": "[3]", "value": "> 10", "unit": "µM"}]}, {"smiles": "Cc1cc(C)nc(Sc2cccc(NC(=O)c3cccc([C@@H]4C[C@H]4NCC4CC4)c3)c2)n1", "note": "(relative stereo) [Example 132, 3-(trans-2-((cyclopropylmethyl)amino)cyclopropyl)-N-(3-((4,6-dimethylpyrimidin-2-yl)sulfanyl)phenyl)benzamide trifluoroacetate]", "values": [{"measurement": "IC50", "setting": "[1]", "value": "> 10", "unit": "µM"}, {"measurement": "IC50", "setting": "[2]", "value": "< 0.1", "unit": "µM"}, {"measurement": "IC50", "setting": "[3]", "value": "> 10", "unit": "µM"}]}, {"smiles": "O=C(Nc1ccc(Oc2ccc(F)cc2)nc1)c1cccc([C@@H]2C[C@H]2NCC2CC2)c1", "note": "(relative stereo) [Example 137, 3-(trans-2-((cyclopropylmethyl)amino)cyclopropyl)-N-(6-(4-fluorophenoxyl)pyridin-3-yl)benzamide bis(trifluoroacetate)]", "values": [{"measurement": "IC50", "setting": "[1]", "value": "> 10", "unit": "µM"}, {"measurement": "IC50", "setting": "[2]", "value": "< 0.1", "unit": "µM"}, {"measurement": "IC50", "setting": "[3]", "value": "> 10", "unit": "µM"}]}, {"smiles": "O=C(Nc1ccc2nccnc2c1)c1cccc([C@@H]2C[C@H]2NCC2CC2)c1", "note": "(relative stereo) [Example 143, 3-(trans-2-((cyclopropylmethyl)amino)cyclopropyl)-N-(quinoxalin-6-yl)benzamide bis(trifluoroacetate)]", "values": [{"measurement": "IC50", "setting": "[1]", "value": 2.1, "unit": "µM"}, {"measurement": "IC50", "setting": "[2]", "value": "< 0.1", "unit": "µM"}, {"measurement": "IC50", "setting": "[3]", "value": "> 10", "unit": "µM"}]}, {"smiles": "O=C(Nc1ccc2ncsc2c1)c1cccc([C@@H]2C[C@H]2NCC2CC2)c1", "note": "(relative stereo) [Example 144, N-(1,3-benzothiazol-6-yl)-3-(trans-2-((cyclopropylmethyl)amino)cyclopropyl)benzamide trifluoroacetate]", "values": [{"measurement": "IC50", "setting": "[1]", "value": "> 10", "unit": "µM"}, {"measurement": "IC50", "setting": "[2]", "value": "< 0.1", "unit": "µM"}, {"measurement": "IC50", "setting": "[3]", "value": "> 10", "unit": "µM"}]}, {"smiles": "O=C(Nc1ccc2[nH]ncc2c1)c1cccc([C@@H]2C[C@H]2NCC2CC2)c1", "note": "(relative stereo) [Example 146, 3-(trans-2-((cyclopropylmethyl)amino)cyclopropyl)-N-(1H-indazol-5-yl)benzamide trifluoroacetate]", "values": [{"measurement": "IC50", "setting": "[1]", "value": "> 10", "unit": "µM"}, {"measurement": "IC50", "setting": "[2]", "value": "< 0.1", "unit": "µM"}, {"measurement": "IC50", "setting": "[3]", "value": "> 10", "unit": "µM"}]}, {"smiles": "O=C(Nc1ccc2[nH]c(=O)sc2c1)c1cccc([C@@H]2C[C@H]2NCC2CC2)c1", "note": "(relative stereo) [Example 147, 3-(trans-2-((cyclopropylmethyl)amino)cyclopropyl)-N-(2-oxo-2,3-dihydro-1,3-benzothiazol-6-yl)benzamide trifluoroacetate]", "values": [{"measurement": "IC50", "setting": "[1]", "value": "> 10", "unit": "µM"}, {"measurement": "IC50", "setting": "[2]", "value": "< 0.1", "unit": "µM"}, {"measurement": "IC50", "setting": "[3]", "value": "> 10", "unit": "µM"}]}, {"smiles": "CCN1C(=O)COc2cc(NC(=O)c3cccc([C@@H]4C[C@H]4NCC4CC4)c3)ccc21", "note": "(relative stereo) [Example 149, 3-(trans-2-((cyclopropylmethyl)amino)cyclopropyl)-N-(4-ethyl-3-oxo-3,4-dihydro-2H-1,4-benzoxazin-7-yl)benzamide trifluoroacetate]", "values": [{"measurement": "IC50", "setting": "[1]", "value": "> 10", "unit": "µM"}, {"measurement": "IC50", "setting": "[2]", "value": "< 0.1", "unit": "µM"}, {"measurement": "IC50", "setting": "[3]", "value": "> 10", "unit": "µM"}]}, {"smiles": "O=C(Nc1cnn(CC(F)(F)F)c1)c1cccc([C@@H]2C[C@H]2NCC2CC2)c1", "note": "(relative stereo) [Example 151, 3-(trans-2-((cyclopropylmethyl)amino)cyclopropyl)-N-(1-(2,2,2-trifluoroethyl)-1H-pyrazol-4-yl)benzamide hydrochloride]", "values": [{"measurement": "IC50", "setting": "[1]", "value": "> 10", "unit": "µM"}, {"measurement": "IC50", "setting": "[2]", "value": "< 0.1", "unit": "µM"}, {"measurement": "IC50", "setting": "[3]", "value": "> 10", "unit": "µM"}]}, {"smiles": "Cc1cc(NC(=O)c2cccc([C@@H]3C[C@H]3NCC3CC3)c2)sn1", "note": "(relative stereo) [Example 152, 3-(trans-2-((cyclopropylmethyl)amino)cyclopropyl)-N-(3-methyl-1,2-thiazol-5-yl)benzamide hydrochloride]", "values": [{"measurement": "IC50", "setting": "[1]", "value": "> 10", "unit": "µM"}, {"measurement": "IC50", "setting": "[2]", "value": "< 0.1", "unit": "µM"}, {"measurement": "IC50", "setting": "[3]", "value": "> 10", "unit": "µM"}]}, {"smiles": "CC(C)(C)CN[C@@H]1C[C@H]1c1cccc(C(=O)NC2CC(F)(F)C2)c1", "note": "(relative stereo) [Example 154, N-(3,3-difluorocyclobutyl)-3-(trans-2-((2,2-dimethylpropyl)amino)cyclopropyl)benzamide hydrochloride]", "values": [{"measurement": "IC50", "setting": "[1]", "value": "> 10", "unit": "µM"}, {"measurement": "IC50", "setting": "[2]", "value": "< 0.1", "unit": "µM"}, {"measurement": "IC50", "setting": "[3]", "value": "> 10", "unit": "µM"}]}, {"smiles": "Cc1nnc(NC(=O)c2cccc([C@@H]3C[C@H]3NCC(C)(C)C)c2)s1", "note": "(relative stereo) [Example 158, 3-(trans-2-((2,2-dimethylpropyl)amino)cyclopropyl)-N-(5-methyl-1,3,4-thiadiazol-2-yl)benzamide dihydrochloride]", "values": [{"measurement": "IC50", "setting": "[1]", "value": "> 10", "unit": "µM"}, {"measurement": "IC50", "setting": "[2]", "value": "< 0.1", "unit": "µM"}, {"measurement": "IC50", "setting": "[3]", "value": "> 10", "unit": "µM"}]}, {"smiles": "O=C(Nc1cnn(-c2ccc(F)cc2)c1)c1cccc([C@@H]2C[C@H]2NC2CCOCC2)c1", "note": "(relative stereo) [Example 196, N-(1-(4-fluorophenyl)-1H-pyrazol-4-yl)-3-(trans-2-(tetrahydro-2H-pyran-4-ylamino)cyclopropyl)benzamide dihydrochloride]", "values": [{"measurement": "IC50", "setting": "[1]", "value": "> 10", "unit": "µM"}, {"measurement": "IC50", "setting": "[2]", "value": "< 0.1", "unit": "µM"}, {"measurement": "IC50", "setting": "[3]", "value": "> 10", "unit": "µM"}]}, {"smiles": "O=C(Nc1cnn(-c2ccc(F)cc2)c1)c1cccc([C@@H]2C[C@H]2NC2CCS(=O)(=O)CC2)c1", "note": "(relative stereo) [Example 197, 3-(trans-2-((1,1-dioxidotetrahydro-2H-thiopyran-4-yl)amino)cyclopropyl)-N-(1-(4-fluorophenyl)-1H-pyrazol-4-yl)benzamide dihydrochloride]", "values": [{"measurement": "IC50", "setting": "[1]", "value": "> 10", "unit": "µM"}, {"measurement": "IC50", "setting": "[2]", "value": "< 0.1", "unit": "µM"}, {"measurement": "IC50", "setting": "[3]", "value": "> 10", "unit": "µM"}]}, {"smiles": "O=C(NC1CCCC1)c1cccc([C@@H]2C[C@H]2NC2CCN(C3CC3)CC2)c1", "note": "(relative stereo) [Example 199, N-cyclopentyl-3-(trans-2-((1-cyclopropylpiperidin-4-yl)amino)cyclopropyl)benzamide dihydrochloride]", "values": [{"measurement": "IC50", "setting": "[1]", "value": "> 10", "unit": "µM"}, {"measurement": "IC50", "setting": "[2]", "value": "< 0.1", "unit": "µM"}, {"measurement": "IC50", "setting": "[3]", "value": "> 10", "unit": "µM"}]}, {"smiles": "CN1CCC(N[C@@H]2C[C@H]2c2cccc(C(=O)NC3CCCC3)c2)CC1", "note": "(relative stereo) [Example 200, N-cyclopentyl-3-(trans-2-((1-methylpiperidin-4-yl)amino)cyclopropyl)benzamide dihydrochloride]", "values": [{"measurement": "IC50", "setting": "[1]", "value": "> 10", "unit": "µM"}, {"measurement": "IC50", "setting": "[2]", "value": "< 0.1", "unit": "µM"}, {"measurement": "IC50", "setting": "[3]", "value": "> 10", "unit": "µM"}]}, {"smiles": "O=C(Nc1cnn(CC2CC2)c1)c1cccc([C@@H]2C[C@H]2NC2CCC2)c1", "note": "(relative stereo) [Example 201, 3-(trans-2-(cyclobutylamino)cyclopropyl)-N-(1-(cyclopropylmethyl)-1H-pyrazol-4-yl)benzamide dihydrochloride]", "values": [{"measurement": "IC50", "setting": "[1]", "value": "> 10", "unit": "µM"}, {"measurement": "IC50", "setting": "[2]", "value": "< 0.1", "unit": "µM"}, {"measurement": "IC50", "setting": "[3]", "value": "> 10", "unit": "µM"}]}]}
